#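 96-well plates; 48 h exposure; 5 concentrations. Endpoints by linear interpolation between flanking doses. Not reached: highest tested concentration assigned. At the TGI there is no net growth.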
# Assays:
# Test in all cases: DTP human tumour cell line panel, 48 h
# SN12C renal = tested on: SN12C renal
# BT-549 breast = tested on: BT-549 breast
# CCRF-CEM leukemia = tested on: CCRF-CEM leukemia
# HS 578T breast = tested on: HS 578T breast
# ACHN renal = tested on: ACHN renal
# MOLT-4 leukemia = tested on: MOLT-4 leukemia
# DU-145 prostate = tested on: DU-145 prostate
# CAKI-1 renal = tested on: CAKI-1 renal
# SK-MEL-2 melanoma = tested on: SK-MEL-2 melanoma
# 786-0 renal = tested on: 786-0 renal
# KM12 colon = tested on: KM12 colon
# EKVX NSCLC = tested on: EKVX NSCLC
# OVCAR-5 ovarian = tested on: OVCAR-5 ovarian
# NCI-H460 lung = tested on: NCI-H460 lung
# LOX IMVI melanoma = tested on: LOX IMVI melanoma
# TK-10 renal = tested on: TK-10 renal
# RPMI-8226 leukemia = tested on: RPMI-8226 leukemia
# T-47D breast = tested on: T-47D breast
smiles,measurement,setting,value
O=C1/C(=C\c2ccc(Cl)cc2Cl)Sc2scc(-c3ccc(O)c(O)c3)[n+]21,TGI,SN12C renal,30.3 µM
same,TGI,BT-549 breast,46.7 µM
same,TGI,CCRF-CEM leukemia,39.4 µM
same,TGI,HS 578T breast,> 100 µM
same,TGI,ACHN renal,46.3 µM
same,TGI,MOLT-4 leukemia,29.6 µM
same,TGI,DU-145 prostate,41.9 µM
same,TGI,CAKI-1 renal,43.4 µM
same,TGI,SK-MEL-2 melanoma,35.5 µM
same,TGI,786-0 renal,31.6 µM
same,TGI,KM12 colon,33.9 µM
same,TGI,EKVX NSCLC,49 µM
same,TGI,OVCAR-5 ovarian,46.3 µM
same,TGI,NCI-H460 lung,48.2 µM
same,TGI,LOX IMVI melanoma,40.8 µM
same,TGI,TK-10 renal,38.8 µM
CCOC(=O)c1ccc(-c2cc(C)no2)[nH]1,TGI,RPMI-8226 leukemia,> 100 µM
same,TGI,SN12C renal,> 100 µM
same,TGI,BT-549 breast,> 100 µM
same,TGI,CCRF-CEM leukemia,> 100 µM
same,TGI,ACHN renal,> 100 µM
same,TGI,MOLT-4 leukemia,> 100 µM
same,TGI,DU-145 prostate,> 100 µM
same,TGI,CAKI-1 renal,71.5 µM
same,TGI,SK-MEL-2 melanoma,> 100 µM
same,TGI,786-0 renal,> 100 µM
same,TGI,KM12 colon,> 100 µM
same,TGI,EKVX NSCLC,> 100 µM
same,TGI,OVCAR-5 ovarian,> 100 µM
same,TGI,NCI-H460 lung,> 100 µM
same,TGI,T-47D breast,> 100 µM
same,TGI,LOX IMVI melanoma,> 100 µM
same,TGI,TK-10 renal,> 100 µM
C=CCNC(=S)N/C=C(\C#N)C(N)=O,TGI,RPMI-8226 leukemia,> 100 µM
same,TGI,SN12C renal,> 100 µM
same,TGI,CCRF-CEM leukemia,> 100 µM
same,TGI,HS 578T breast,> 100 µM
same,TGI,ACHN renal,> 100 µM
same,TGI,MOLT-4 leukemia,> 100 µM
same,TGI,DU-145 prostate,> 100 µM
same,TGI,CAKI-1 renal,> 100 µM
same,TGI,SK-MEL-2 melanoma,> 100 µM
same,TGI,786-0 renal,> 100 µM
same,TGI,KM12 colon,> 100 µM
same,TGI,EKVX NSCLC,> 100 µM
same,TGI,OVCAR-5 ovarian,> 100 µM
same,TGI,NCI-H460 lung,> 100 µM
same,TGI,T-47D breast,> 100 µM
same,TGI,LOX IMVI melanoma,> 100 µM
O=C1/C(=C/c2ccco2)NC(=S)N1CN1CCCCC1,TGI,RPMI-8226 leukemia,> 100 µM
same,TGI,SN12C renal,> 100 µM
same,TGI,CCRF-CEM leukemia,> 100 µM
same,TGI,HS 578T breast,> 100 µM
same,TGI,ACHN renal,> 100 µM
same,TGI,MOLT-4 leukemia,> 100 µM
same,TGI,DU-145 prostate,> 100 µM
same,TGI,SK-MEL-2 melanoma,> 100 µM
same,TGI,786-0 renal,> 100 µM
same,TGI,KM12 colon,> 100 µM
same,TGI,EKVX NSCLC,> 100 µM
same,TGI,OVCAR-5 ovarian,> 100 µM
same,TGI,LOX IMVI melanoma,> 100 µM
same,TGI,TK-10 renal,> 100 µM
Cc1cn(C2OC(CO[Si](C)(C)C(C)(C)C)C(N(C)O[Si](C)(C)C(C)(C)C)C2[Se]c2ccccc2)c(=O)[nH]c1=O (configuration not stated),TGI,RPMI-8226 leukemia,> 100 µM
same,TGI,SN12C renal,> 100 µM
same,TGI,CCRF-CEM leukemia,> 100 µM
same,TGI,HS 578T breast,7.58 µM
same,TGI,ACHN renal,18.3 µM
same,TGI,MOLT-4 leukemia,> 100 µM
same,TGI,DU-145 prostate,79 µM
same,TGI,SK-MEL-2 melanoma,34 µM
same,TGI,786-0 renal,9.29 µM
same,TGI,KM12 colon,16.2 µM
same,TGI,OVCAR-5 ovarian,11.7 µM
same,TGI,LOX IMVI melanoma,10.2 µM
same,TGI,TK-10 renal,27.1 µM
O=c1[nH]c(=O)c2c3n(cc2[nH]1)CCCCC3,TGI,RPMI-8226 leukemia,> 100 µM
same,TGI,SN12C renal,> 100 µM
same,TGI,CCRF-CEM leukemia,> 100 µM
same,TGI,HS 578T breast,> 100 µM
same,TGI,ACHN renal,> 100 µM
same,TGI,MOLT-4 leukemia,> 100 µM
same,TGI,DU-145 prostate,> 100 µM
same,TGI,CAKI-1 renal,> 100 µM
same,TGI,786-0 renal,> 100 µM
same,TGI,KM12 colon,> 100 µM
same,TGI,EKVX NSCLC,> 100 µM
same,TGI,OVCAR-5 ovarian,> 100 µM
same,TGI,NCI-H460 lung,> 100 µM
same,TGI,T-47D breast,> 100 µM
same,TGI,LOX IMVI melanoma,> 100 µM
same,TGI,TK-10 renal,> 100 µM
CCOC(=O)C12OC(OCC)(CC1(OCC)OCC)C1(CC1)C2=O (configuration not stated),TGI,SN12C renal,> 100 µM
same,TGI,BT-549 breast,> 100 µM
same,TGI,CCRF-CEM leukemia,> 100 µM
same,TGI,ACHN renal,> 100 µM
same,TGI,MOLT-4 leukemia,> 100 µM
same,TGI,DU-145 prostate,> 100 µM
same,TGI,CAKI-1 renal,> 100 µM
same,TGI,SK-MEL-2 melanoma,> 100 µM
same,TGI,786-0 renal,> 100 µM
same,TGI,KM12 colon,> 100 µM
same,TGI,EKVX NSCLC,> 100 µM
same,TGI,OVCAR-5 ovarian,> 100 µM
same,TGI,NCI-H460 lung,> 100 µM
same,TGI,LOX IMVI melanoma,> 100 µM
same,TGI,TK-10 renal,> 100 µM
COC(=O)c1cccc(C)c1C1CN=NC12Cc1cc(C)cc(C)c1C2=O (configuration not stated),TGI,RPMI-8226 leukemia,> 100 µM
same,TGI,SN12C renal,> 100 µM
same,TGI,CCRF-CEM leukemia,> 100 µM
same,TGI,HS 578T breast,> 100 µM
same,TGI,ACHN renal,> 100 µM
same,TGI,MOLT-4 leukemia,74.9 µM
same,TGI,DU-145 prostate,> 100 µM
same,TGI,CAKI-1 renal,> 100 µM
same,TGI,786-0 renal,> 100 µM
same,TGI,KM12 colon,> 100 µM
same,TGI,EKVX NSCLC,90.3 µM
same,TGI,OVCAR-5 ovarian,> 100 µM
same,TGI,NCI-H460 lung,> 100 µM
same,TGI,T-47D breast,53.7 µM
same,TGI,LOX IMVI melanoma,> 100 µM
same,TGI,TK-10 renal,> 100 µM
CCOC(=O)CCCSCCCC(=O)CCCSCCCC(=O)OCC,TGI,SN12C renal,> 100 µM
same,TGI,BT-549 breast,> 100 µM
same,TGI,CCRF-CEM leukemia,> 100 µM
same,TGI,MOLT-4 leukemia,> 100 µM
same,TGI,DU-145 prostate,> 100 µM
same,TGI,786-0 renal,> 100 µM
same,TGI,KM12 colon,> 100 µM
same,TGI,EKVX NSCLC,> 100 µM
same,TGI,OVCAR-5 ovarian,> 100 µM
same,TGI,NCI-H460 lung,> 100 µM
same,TGI,T-47D breast,> 100 µM
same,TGI,LOX IMVI melanoma,> 100 µM
same,TGI,TK-10 renal,> 100 µM
O=C1c2cc3c(cc2CC12Cc1ccc4c(c1C2=O)CCC4)CCCC3 (configuration not stated),TGI,RPMI-8226 leukemia,> 100 µM
same,TGI,CCRF-CEM leukemia,> 100 µM
same,TGI,HS 578T breast,> 100 µM
same,TGI,ACHN renal,> 100 µM
same,TGI,MOLT-4 leukemia,> 100 µM
same,TGI,DU-145 prostate,> 100 µM
same,TGI,CAKI-1 renal,> 100 µM
same,TGI,SK-MEL-2 melanoma,> 100 µM
same,TGI,786-0 renal,> 100 µM
same,TGI,EKVX NSCLC,> 100 µM
same,TGI,OVCAR-5 ovarian,> 100 µM
same,TGI,NCI-H460 lung,> 100 µM
same,TGI,T-47D breast,> 100 µM
same,TGI,LOX IMVI melanoma,> 100 µM
same,TGI,TK-10 renal,> 100 µM
N#CSC#CCCC#CSC#N,TGI,SN12C renal,31.9 µM
same,TGI,BT-549 breast,47.7 µM
same,TGI,CCRF-CEM leukemia,> 100 µM
same,TGI,HS 578T breast,76.2 µM
same,TGI,ACHN renal,31.4 µM
same,TGI,MOLT-4 leukemia,6.92 µM
same,TGI,DU-145 prostate,28.3 µM
same,TGI,CAKI-1 renal,33.7 µM
same,TGI,SK-MEL-2 melanoma,43.1 µM
same,TGI,786-0 renal,40.4 µM
same,TGI,KM12 colon,34.9 µM
same,TGI,EKVX NSCLC,41.5 µM
same,TGI,OVCAR-5 ovarian,40.3 µM
same,TGI,NCI-H460 lung,48.4 µM
same,TGI,LOX IMVI melanoma,40.5 µM
same,TGI,TK-10 renal,33.1 µM

# — PubChem BioAssay (NCI)
